# Measured values published in US7566737B2 (Genfit, priority 2002, dated 2009).
# Experiments:
# [1] = system: Human normal primary fibroblasts; assay: Antioxidant properties on cell cultures (carboxy-H2DCFDA fluorescence, AAPH stress), fibroblasts; assay type: cell-based; conditions: 25 μM for 24 h, AAPH 750 μM
# Outline: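 Cells were pretreated 24 h with compound at 25 μM, loaded 30 min at 37 °C with 25 μM carboxy-H2DCFDA, then stressed 30 min with 750 μM AAPH in phenol-red- and serum-free medium. ROS read as fluorescence ([…]); activity expressed as reduction in fluorescence signal.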
# human PPARα = biological target: T1, human PPARα (Homo sapiens, UniProt Q07869); assay: PPARα/Gal4 transactivation system; assay type: cell-based
# T1 construct: expressed in transfected cells; host or cells: RK13 or COS-7
# T1 sequence (Q07869 239-466 limits assumed): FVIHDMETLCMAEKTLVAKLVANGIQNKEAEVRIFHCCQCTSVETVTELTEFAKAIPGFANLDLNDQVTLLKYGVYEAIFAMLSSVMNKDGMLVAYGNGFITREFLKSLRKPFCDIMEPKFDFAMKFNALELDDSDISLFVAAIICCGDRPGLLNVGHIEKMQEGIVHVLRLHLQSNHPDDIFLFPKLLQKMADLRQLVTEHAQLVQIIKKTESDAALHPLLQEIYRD
# Outline: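 Gal4-DBD fused to human PPAR ligand-binding (DEF) domain with Gal4-responsive luciferase reporter, in transfected RK13 or COS-7 cells. RK13: compounds at 10, 30, 100 μM or 1, 10, 100 μM for 24 h, dual-luciferase read, normalised to protein; COS-7: 24 h activation at 37° C in serum-free medium, luciferase read-out.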
# [2] = system: hApoE2 Knock-in transgenic mice; assay: Effects on triglycerides and cholesterol metabolism in vivo; set-up: species or system mouse
# Outline: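 hApoE2 knock-in mice (n=6/group, matched for body weight and plasma lipids) dosed once daily by intragastric gavage in carboxymethylcellulose for 7 or 8 days at indicated doses. Terminal blood on EDTA; total cholesterol and triglycerides measured colorimetrically.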
# [3] = 200, 50, 12.5 and 3.125 mg/kg/day for 8 days
maximum induction factor (human PPARα; at the 10 or 1 μm concentrations),induction factor (luminescent signal relative to untreated cells) (human PPARα; 1 μM),induction factor (luminescent signal relative to untreated cells) (human PPARα; 10 μM),Compound,antioxidant properties on cell cultures (in words) [1],cholesterol in lipoparticle subfraction (exclusion chromatography) ([2]; 50 mg/kg/day for 8 days),plasma cholesterol ([2]; 50 mg/kg/day for 8 days),plasma triglycerides ([2]; 50 mg/kg/day for 8 days),triglycerides in lipoparticle subfraction (exclusion chromatography) ([2]; 50 mg/kg/day for 8 days),"plasma cholesterol ([2]; 50 mg/kg/day for 7 or 8 days, FIGS. 4-13, 4-15, 4-17, 4-19)","plasma triglycerides ([2]; 50 mg/kg/day for 7 or 8 days, FIGS. 4-14, 4-16, 4-18, 4-20)","cholesterol in lipoparticle subfraction (exclusion chromatography) [2, 3]","plasma cholesterol level [2, 3]","plasma triglycerides level [2, 3]","triglycerides in lipoparticle subfraction (exclusion chromatography) [2, 3]"
34,–,–,"Cc1cc(/C=C/C(=O)c2ccc(Br)cc2)cc(C)c1OC(C)(C)C(=O)O [Compound 41, 1-[4-bromophenyl]-3-[3,5-dimethyl-4-carboxydimethylmethyloxyphenyl]prop-2-en-1-one]",antioxidant properties,decrease,decrease,decrease,decrease,–,–,–,–,–,–
–,28,25,"CSc1ccc(C(=O)/C=C/c2cc(C)c(OC(C)(C)C(=O)O)c(C)c2)cc1 [Compound 29, 1-[4-methylthiophenyl]-3-[3,5-dimethyl-4-carboxydimethylmethyloxyphenyl]prop-2-en-1-one]",antioxidant properties,–,–,–,–,decrease,decrease,decrease,dose-dependent decrease,dose-dependent decrease,decrease
